Literature values in patent US20150065426A1, “Testosterone Booster Transdermal Compositions” (Professional Compounding Centers Of America, priority 2013, published 2015).

What was measured:
[1] = after the use of anastrozole for about 7 days
[2] = men with elevated estradiol / hormone disorders

CC(C)(C#N)c1cc(Cn2cncn2)cc(C(C)(C)C#N)c1 [anastrozole, Anastrozole]
increase of natural testosterone levels [1]: ≤ 60%
estradiol levels [2]: significant decrease
